Measurements taken from patent publication US20250380697A1, “ISOXAZOLINE DERIVATIVE COMPOUND AND INSECTICIDAL COMPOSITION COMPRISING SAME” (KYUNG NONG CORPORATION, priority 2022, published 2025).
Read-outs that look alike come from different tables or passages of the source.

Tests used:
Assay type in all cases: in vivo
[1] = system: Frankliniella occidentalis; assay: Pesticidal activity against Frankliniella occidentalis, spray method; settings: read-out: mortality rate against Frankliniella occidentalis
From the text: A water-soaked filter paper (9.0 cm in diameter) was placed in an insect breeding dish (Lab Guide®) with a diameter of 9.0 cm and a height of 4.0 cm, and then parafilm (width 4.0 cm×height 4.0 cm) was placed thereon. Before treating with a pesticide composition, 10 adult Frankliniella occidentalis were inoculated per petri dish using a No. 4 brush. In this case, Frankliniella occidentalis adults used were those purchased from the Bio Utilization Institute (Andong, Korea). Then, each of the pesticide compositions prepared in Examples (a diluted solution in which each of the compounds of Synthesis Examples (concentration: 100 ppm) was diluted; the solvent=distilled water+acetone 50,000 mg/L+Triton X-100 100 mg/L) was loaded into a 100 mL small sprayer, and sprayed 10-12 times at a distance of 30 cm and a height of 50 cm, and one cotyledons of soybean, which is a host plant, were added one at a time. Then, the Frankliniella occidentalis adults were stored under the conditions of 16 hours of light and 8 hours of darkness, 25±1° C., and relative humidity of 50-60%, and the number of live Frankliniella occidentalis adults was counted 48 hours after the inoculation. Thereafter, the larvae mortality rate was calculated in the same manner as in Test Example 1 above.

Plutella xylostella = assay: Pesticidal activity against Plutella xylostella, leaf-dipping method; settings: read-out: larvae mortality rate against Plutella xylostella
Method: Cabbage (Daiya) leaves were cut into pieces with a diameter of 5.8 cm, dipped in each of the pesticide compositions prepared in Examples (a 5% acetone solution in which each of the compounds of Synthesis Examples (concentration: 100 ppm) was diluted) for 30 seconds, and sufficiently shade-dried. Then, the shade-dried cabbage leaves were placed in a petri dish (8.8 cm in diameter) covered with a filter paper and repeatedly inoculated 3 times with third instar larvae of Plutella xylostella, 10 larvae per inoculation. In particular, Plutella xylostella larvae used were those which were collected in a place near Gyeongju (Korea) in 2000 and bred in a breeding room for multiple generations. Then, the Plutella xylostella larvae were stored under the conditions of 16 hours of light and 8 hours of dark, 25±1° C., and relative humidity of 50-60%, and the number of live Plutella xylostella larvae was counted 48 hours after the inoculation. Thereafter, the larvae mortality rate was calculated by correcting the density after treatment based on the density before treatment, as shown in Equation 1 and Equation 2 below, and converting the same into the corrected mortality rate for untreated (Reference: A method of computing the effectiveness of an insecticide. J. Econ. Entomol. 18:265˜267. Abbott, 1925).

Spodoptera litura = assay: Pesticidal activity against Spodoptera litura, leaf-dipping method; settings: read-out: mortality rate against Spodoptera litura
Method: Cabbage (Daiya) leaves were cut into pieces with a diameter of 5.8 cm, dipped in each of the pesticide compositions prepared in Examples (a 5% acetone solution in which each of the compounds of Synthesis Examples (concentration: 100 ppm) was diluted) for 30 seconds, and sufficiently shade-dried. Then, the shade-dried cabbage leaves were placed in a petri dish (8.8 cm in diameter) covered with a filter paper and repeatedly inoculated 3 times with the second instar larvae of Spodoptera litura, 10 larvae per inoculation. In this case, Spodoptera litura larvae used were those which were purchased from the Bio Utilization Institute (Andong, Korea). Then, the Spodoptera litura larvae were stored under the conditions of 16 hours of light and 8 hours of dark, 25±1° C., and relative humidity of 50-60%, and the number of live Spodoptera litura larvae was counted 48 hours after the inoculation. Thereafter, the larvae mortality rate was calculated in the same manner as in Test Example 1 above.

Measured: mortality at 100 ppm

Cc1cc(C2=NOC(c3cccc(C#N)c3)(C(F)(F)F)C2)ccc1C(=O)NC(=O)C1CC1 (stereo not drawn) [Synthesis Example 4]
≥ 80%: [1]; 100 ppm, spray, adults, 48 hours after inoculation | Plutella xylostella; 100 ppm, leaf-dipping, third instar larvae, 48 hours after inoculation | Spodoptera litura; 100 ppm, leaf-dipping, second instar larvae, 48 hours after inoculation

Cc1cc(C2=NOC(c3cc(C(F)(F)F)cc(C(F)(F)F)c3)(C(F)(F)F)C2)ccc1C(=O)NC(=O)C1CC1 (stereo not drawn) [Synthesis Example 5]
≥ 80%: [1]; 48 h | Plutella xylostella; 48 h | Spodoptera litura; 48 h

O=C(NC(=O)C1CC1)c1ccc(C2=NOC(c3cc(Cl)cc(C(F)(F)F)c3)(C(F)(F)F)C2)c2ccccc12 (stereo not drawn) [Synthesis Example 6]
≥ 80%: [1]; 48 h | Plutella xylostella; 48 h | Spodoptera litura; 48 h

O=C(NC(=O)C1CC1)c1ccc(C2=NOC(c3cc(Cl)cc(C(F)(F)F)c3)(C(F)(F)F)C2)cc1Br (stereo not drawn) [Synthesis Example 8]
≥ 80%: [1]; 48 h | Plutella xylostella; 48 h | Spodoptera litura; 48 h

O=C(NC(=O)C1CC1)c1ccc(C2=NOC(c3cc(Cl)cc(C(F)(F)F)c3)(C(F)(F)F)C2)cc1Cl (stereo not drawn) [Synthesis Example 9]
≥ 80%: [1]; 48 h | Plutella xylostella; 48 h | Spodoptera litura; 48 h

O=C(NC(=O)C1CC1)c1ccc(C2=NOC(c3cc(Cl)cc(C(F)(F)F)c3)(C(F)(F)F)C2)cn1 (stereo not drawn) [Synthesis Example 10]
≥ 80%: [1]; 48 h | Plutella xylostella; 48 h | Spodoptera litura; 48 h

Cc1cc(C2=NOC(c3cc(Cl)cc(C(F)(F)F)c3)(C(F)(F)F)C2)ccc1C(=O)N(C)C(=O)C1CC1 (stereo not drawn) [Synthesis Example 11]
≥ 80%: [1]; 48 h | Plutella xylostella; 48 h | Spodoptera litura; 48 h

CN(C(=O)c1ccc(C2=NOC(c3cc(Cl)cc(C(F)(F)F)c3)(C(F)(F)F)C2)c2ccccc12)C(=O)C1CC1 (stereo not drawn) [Synthesis Example 12]
≥ 80%: [1]; 48 h | Plutella xylostella; 48 h | Spodoptera litura; 48 h

Cc1cc(C2=NOC(c3cc(Cl)cc(Cl)c3)(C(F)(F)F)C2)ccc1C(=O)N(C)C(=O)C1CC1 (stereo not drawn) [Synthesis Example 13]
≥ 80%: [1]; 48 h | Plutella xylostella; 48 h | Spodoptera litura; 48 h

CN(C(=O)c1ccc(C2=NOC(c3cc(Cl)cc(Cl)c3)(C(F)(F)F)C2)c2ccccc12)C(=O)C1CC1 (stereo not drawn) [Synthesis Example 14]
≥ 80%: [1]; 48 h | Plutella xylostella; 48 h | Spodoptera litura; 48 h

O=C(c1ccc(C2=NOC(c3cc(Cl)cc(C(F)(F)F)c3)(C(F)(F)F)C2)c2ccccc12)N(CCF)C(=O)C1CC1 (stereo not drawn) [Synthesis Example 17]
≥ 80%: [1]; 48 h | Plutella xylostella; 48 h | Spodoptera litura; 48 h

Cc1ccc(C(=O)N(C)C(=O)c2ccc(C3=NOC(c4cc(Cl)cc(C(F)(F)F)c4)(C(F)(F)F)C3)cc2C)o1 (stereo not drawn) [Synthesis Example 18]
≥ 80%: [1]; 48 h | Plutella xylostella; 48 h | Spodoptera litura; 48 h

CCN(C(=O)c1ccc(C2=NOC(c3cc(Cl)cc(C(F)(F)F)c3)(C(F)(F)F)C2)cc1C)C(=O)C1CC1 (stereo not drawn) [Synthesis Example 19]
≥ 80%: [1]; 48 h | Plutella xylostella; 48 h | Spodoptera litura; 48 h

Cc1cc(C2=NOC(c3cc(Cl)cc(C(F)(F)F)c3)(C(F)(F)F)C2)ccc1C(=O)N(CC(F)(F)F)C(=O)C1CC1 (stereo not drawn) [Synthesis Example 20]
≥ 80%: [1]; 48 h | Plutella xylostella; 48 h | Spodoptera litura; 48 h

Cc1cc(C2=NOC(c3cc(Cl)cc(C(F)(F)F)c3)(C(F)(F)F)C2)ccc1C(=O)N(CC1CC1)C(=O)C1CC1 (stereo not drawn) [Synthesis Example 21]
≥ 80%: [1]; 48 h | Plutella xylostella; 48 h | Spodoptera litura; 48 h

Cc1cc(C2=NOC(c3cc(Cl)cc(C(F)(F)F)c3)(C(F)(F)F)C2)ccc1C(=O)N(C(=O)C1CC1)C(=O)C1CC1 (stereo not drawn) [Synthesis Example 22]
≥ 80%: [1]; 48 h | Plutella xylostella; 48 h | Spodoptera litura; 48 h

Cc1cc(C2=NOC(c3cc(Cl)cc(C(F)(F)F)c3)(C(F)(F)F)C2)ccc1C(=O)N(C(=O)C1CC1)C1CC1 (stereo not drawn) [Synthesis Example 23]
≥ 80%: [1]; 48 h | Plutella xylostella; 48 h | Spodoptera litura; 48 h

Cc1cc(C2=NOC(c3cc(Cl)cc(Cl)c3)(C(F)(F)F)C2)ccc1C(=O)NC(=O)C1(C)CC1 (stereo not drawn) [Synthesis Example 24]
≥ 80%: [1]; 48 h | Plutella xylostella; 48 h | Spodoptera litura; 48 h

Cc1cc(C2=NOC(c3cc(Cl)cc(C(F)(F)F)c3)(C(F)(F)F)C2)ccc1C(=O)NC(=O)C1(C)CC1 (stereo not drawn) [Synthesis Example 25]
≥ 80%: [1]; 48 h | Plutella xylostella; 48 h | Spodoptera litura; 48 h

Cc1cc(C2=NOC(c3cc(Cl)cc(Cl)c3)(C(F)(F)F)C2)ccc1C(=O)NC(=O)C1(C#N)CC1 (stereo not drawn) [Synthesis Example 26]
≥ 80%: [1]; 48 h | Plutella xylostella; 48 h | Spodoptera litura; 48 h

Cc1cc(C2=NOC(c3cc(Cl)cc(C(F)(F)F)c3)(C(F)(F)F)C2)ccc1C(=O)NC(=O)C1(C#N)CC1 (stereo not drawn) [Synthesis Example 27]
≥ 80%: [1]; 48 h | Plutella xylostella; 48 h | Spodoptera litura; 48 h

Cc1cc(C2=NOC(c3cc(Cl)cc(Cl)c3)(C(F)(F)F)C2)ccc1C(=O)NC(=O)C1(C(F)(F)F)CC1 (stereo not drawn) [Synthesis Example 28]
≥ 80%: [1]; 48 h | Plutella xylostella; 48 h | Spodoptera litura; 48 h

Cc1cc(C2=NOC(c3cc(Cl)cc(C(F)(F)F)c3)(C(F)(F)F)C2)ccc1C(=O)NC(=O)C1(C(F)(F)F)CC1 (stereo not drawn) [Synthesis Example 29]
≥ 80%: [1]; 48 h | Plutella xylostella; 48 h | Spodoptera litura; 48 h

Cc1cc(C2=NOC(c3cc(Cl)cc(Cl)c3)(C(F)(F)F)C2)ccc1C(=O)NC(=O)C1(C)CC1(F)F (stereo not drawn) [Synthesis Example 30]
≥ 80%: [1]; 48 h | Plutella xylostella; 48 h | Spodoptera litura; 48 h

Cc1cc(C2=NOC(c3cc(Cl)cc(C(F)(F)F)c3)(C(F)(F)F)C2)ccc1C(=O)NC(=O)C1(C)CC1(F)F (stereo not drawn) [Synthesis Example 31]
≥ 80%: [1]; 48 h | Plutella xylostella; 48 h | Spodoptera litura; 48 h

Cc1cc(C2=NOC(c3cc(Cl)cc(Cl)c3)(C(F)(F)F)C2)ccc1C(=O)NC(=O)C1CCC1 (stereo not drawn) [Synthesis Example 32]
≥ 80%: [1]; 48 h | Plutella xylostella; 48 h | Spodoptera litura; 48 h

Cc1cc(C2=NOC(c3cc(Cl)cc(C(F)(F)F)c3)(C(F)(F)F)C2)ccc1C(=O)NC(=O)C1CCC1 (stereo not drawn) [Synthesis Example 33]
≥ 80%: [1]; 48 h | Plutella xylostella; 48 h | Spodoptera litura; 48 h

Cc1cc(C2=NOC(c3cc(Cl)cc(Cl)c3)(C(F)(F)F)C2)ccc1C(=O)NC(=O)c1ccccc1 (stereo not drawn) [Synthesis Example 37]
≥ 80%: [1]; 48 h | Plutella xylostella; 48 h | Spodoptera litura; 48 h

Cc1cc(C2=NOC(c3cc(Cl)cc(Cl)c3)(C(F)(F)F)C2)ccc1C(=O)NC(=O)C1CCCCC1 (stereo not drawn) [Synthesis Example 39]
≥ 80%: [1]; 48 h | Plutella xylostella; 48 h | Spodoptera litura; 48 h

Cc1cc(C2=NOC(c3cc(Cl)cc(C(F)(F)F)c3)(C(F)(F)F)C2)ccc1C(=O)NC(=O)C1CCCCC1 (stereo not drawn) [Synthesis Example 40]
≥ 80%: [1]; 48 h | Plutella xylostella; 48 h | Spodoptera litura; 48 h

Cc1cc(C2=NOC(c3cc(Cl)cc(Cl)c3)(C(F)(F)F)C2)ccc1C(=O)NC(=O)c1cn(C)nc1C(F)F (stereo not drawn) [Synthesis Example 45]
≥ 80%: [1]; 48 h | Plutella xylostella; 48 h | Spodoptera litura; 48 h

Cn1cc(C(=O)NC(=O)c2ccc(C3=NOC(c4cc(Cl)cc(Cl)c4)(C(F)(F)F)C3)c3ccccc23)c(C(F)F)n1 (stereo not drawn) [Synthesis Example 46]
≥ 80%: [1]; 48 h | Plutella xylostella; 48 h | Spodoptera litura; 48 h
